Assay results taken from patent US20190298717A1 (BOARD OF REGENTS, THE UNIVERSITY OF TEXAS SYSTEM, priority 2016, published 2019).
“Also recorded” adds a separate entry of the source.

Assays:
C. elegans [1] = tested on: C. elegans
Method: Measurement of Reactive Oxygen Species. Superoxide concentration was measured by dihydroethidium (DHE). Black clear bottom 96 well plates were seeded with about 5000 HEK293 tau aggregate-negative (control) and aggregate-positive model cells per well and about 20000 SH-SY5Y cells (the NRF2 knockdown of both cell lines were also seeded). […] Fluorescence was measured by Spectramax Gemini XPS plate reader (Molecular Devices, Sunnyvale, Calif.) at 370 nm excitation and 420 nm emission wavelengths. […] Equal number of animals were transferred to a black bottom 96 well plate and fluorescence was measured same as above.

Nrf2 = tested on: Nrf2
Method: The inventors quantified Nrf2 protein in treated cells as a first step towards validating the prediction of the Nrf2 pathway.
Nrf2 phosphorylation on serine 40 is a regulatory modification required for Nrf2 translocation to nucleus and downstream protein activation.
(§1) Western Blot Analysis. Protein expression was determined by Western blot analysis. Equal amount of protein from each sample was run in Tris-glycine SDS PAGE gel, followed by transferring to PVDF membrane. After blocking the membrane with 5% milk for 1 hour at room temperature, the membrane was incubated further for 2 hours with antibodies specific for target proteins: Nrf2, pNrf2(S40) from Novus (Littleton, Colo.); Keap1, HO-1, NQO1, GCLc, GCLm and lamin B1 from Cell Signaling (Danvers, Mass.); GAPDH from Santa Cruz (Dallas, Tex.); β-Actin from Thermo Fisher (Waltham, Mass.). The membrane was subsequently incubated with species-specific HRP-conjugated secondary antibody followed by incubation with chemiluminescence substrate and imaging. The band intensity of each of the target proteins was quantified using ImageQuant software (GE Healthcare, Sweden). Western blot analysis on worm lystaes was done similarly. […] Equal amounts of protein were run on the gel and SKN-1 protein level was detected using anti-GFP antibody.
Cell Fractionation. Nuclear and cytoplasmic fractions were separated using the protocol and NE-PER Nuclear and Cytoplasmic Extraction Reagents provided by […]. Briefly, the cells were harvested and washed with ice-cold PBS buffer. The cells were resuspended in ice-cold CER-I buffer and incubated on ice for 10 minutes, followed by addition of CER-II buffer and incubation for one more minute on ice. The lysate was centrifuged at 16,000 g for 5 minutes. The supernatant was the cytoplasmic fraction. The pellet obtained was lysed in ice-cold NER buffer to obtain nuclear protein fractions.

[2] = tested on: NMNAT-1, SIRT1, SIRT5 and COX-IV
Source text: Data were normalized to actin. […] The intensity of the bands was normalized to actin. Data are mean±SEM of triplicate measurements.

thioredoxin 1 (Trx1) = conditions: SH-SY5Y, after 24 h and 48 h
Method: Trx1 reduces the cysteine residues critical for binding of Nrf2 to AREs (Hansen et al., 2004).
as §1

SH-SY5Y cells [3] = tested on: SH-SY5Y cells
Source text: (§2) Results are expressed as means±SD from three independent experiments. […] Cell lysates were then subjected to Western blot analysis.
(§3) A cell titer glow luminescence assay was used to measure cell cytotoxicity. […] LC3, microtubule-associated protein 1 light chain 3, which is a homologue of Apg8p essential for autophagy in yeast, is processed posttranslationally into LC3-I in cytosol. LC3-I is then converted into LC3-II, which associates with autophagosome membranes. The ratio of LC3-II/LC3-I determines the status of the autophagy process.

LC3 = conditions: 0, 5, 10 μM, ± bafilomycin 20 nM, 4 hours
Source text: as §2, §3

C. elegans [4] = assay: Rotenone stress test in worms; type: in vivo
Source text: The inventors again used rotenone to elicit PD-like changes.
Rotenone stress test. […] After 3 days young adult worms were transferred to fresh NGM plates either preloaded with rotenone alone or rotenone plus any of the abovementioned compounds. Every worm was subjected to prodding test with a worm pick every day. A worm was scored as dead when not responding to three repeated proddings. Survival curve was plotted using Prism 7.

SH-SY5Y cells [5] = conditions: Aβ (1-42) 20 μM, 24 hour; 46% with Aβ alone
Method: Densitometry values were normalized against actin.
After 24 hour treatment, cell viability was measured using the cell titer glow luminescence assay.

GSK3β and Tau [6] = assay: p-GSK3β (S9) and p-Tau (S396) Western blot; conditions: 10 μM, 24 hours
Method: Densitometry values were normalized against actin. […] The levels of p-Tau and total Tau were measured by Western blot analysis. […] Densitometry values were normalized to actin using Image J software. All of the western blot quantification values (shown in the right panel) are mean±SD from two technical replicates (n=2).
A known GSK3β inhibitor LiCl (lithium chloride) (10 mM) was used as a positive control [9]. After the treatment, cells were lysed and equal amounts of total lysate were resolved on SDS-PAGE for western blot analysis using phospho-GSK3β (S9) (phosphorylation at this residue reduces the GSK3β kinase activity) and pTau antibodies [12,13]. […] The inventors analyzed the level of Tau phosphorylation at S396 (FIG. 18C).

HEKTauP301S cells = conditions: 20 μM Aβ (1-42), 5 and 10 μM, 24 hours
Method: (§4) The data represents as percent cell viability normalized to DMSO treated control cells. The values are mean percent of two biological experiments performed in six replicates. […] After treatment Western blot analysis was performed to check the levels of p-GSK3β and total GSK3β in addition to p-Tau and total Tau level. […] Densitometry values were normalized using actin as internal control. All western blot analysis (FIG. 19B, 19C) values are mean±SD from three biological independent experiments (shown in the right panel).
(§5) To mimic the cellular environment of AD disease a stable HEK293 cell line (HEKTauP301S) overexpressing mutated full length Tau (P301S) was used.

GSK3β and Tau [7] = tested on: GSK3β and Tau
Method: as §4, §5

SKN-1 = tested on: SKN-1
Method: as §1

[8] = HEKTauP301S, 500 nM Aβ (1-42), 10 μM, 24 hours

Compound: NNc1nncc2ccccc12 [Hydralazine]
- superoxide concentration in N2 worms (C. elegans [1]): decreased superoxide concentration
- increase of phosphorylation of Nrf2 on serine 40 in the nuclear compartment (Nrf2; SH-SY5Y): 25%
- phosphorylation of cytosolic Nrf2 (Nrf2; SH-SY5Y): no change was observed
- increase in Nrf2 level compared to untreated cells (Nrf2; SH-SY5Y, 10 μM, 24 h, Western blotting): about 20%
- cytosolic Nrf2 fraction (Nrf2; SH-SY5Y, 10, 20 μM): remained unchanged
- nuclear localization of Nrf2 (Nrf2; SH-SY5Y, 10, 20 μM): significantly increased
- transcription level of NMNAT-1, SIRT1, SIRT5 (qRT-PCR) ([2]; 20 μM, 12 hours): increased the transcription level
- NMNAT-1, SIRT1, SIRT5 protein (Western blot) ([2]; 10 and 20 μM): up-regulated at the protein level
- level of COX-IV ([2]; after 48 hours): significant increase
- increase of the amount of Trx1 (thioredoxin 1 (Trx1)): 25%
- protection against oxidative stress under proteasomal inhibition by MG132 (SH-SY5Y cells [3]; MG132 10 μM, H2O2 100 μM, 4 hours): does not have an impact
- protection against oxidative stress under autophagy inhibition with bafilomycin (SH-SY5Y cells [3]; bafilomycin 20 nM, H2O2 100 μM, 4 hours): significantly reduces the ability of hydralazine to protect cells
- concentration at which no toxicity was observed (SH-SY5Y cells [3]; human, 48 h): up to 25 μM
- concentration with significant decrease in cell viability compared to control (SH-SY5Y cells [3]; human, 48 h): ≥ 50 µM
- ratio of LC3-II/LC3-I (LC3): increase in the ratio of LC3-II/LC3-I
- protection against rotenone-induced death (C. elegans [4]; 100 μM pretreatment, rotenone 50 μM): protected from rotenone; also recorded: significantly protected
- protection against rotenone in skn-1(zu135) mutant compared to N2 (C. elegans [4]; skn-1(zu135)): sharply decreased
- cells surviving Aβ (1-42) peptide treatment (SH-SY5Y cells [5]): 70-80%
- Tau phosphorylation at S396, compared to positive control LiCl (GSK3β and Tau [6]): reduces the hyper-phosphorylation of Tau even more
- viability under Aβ (1-42)-induced toxicity (HEKTauP301S cells): protects Tau-overexpressing cells
- phosphorylation level of GSK3β in control HEK293 cells (GSK3β and Tau [7]; HEKT293 cells as control): not able to detect a significant upregulation
- Aβ-induced Tau phosphorylation (GSK3β and Tau [7]; [8]): inhibits Aβ-induced Tau phosphorylation
- phosphorylation of GSK3β (GSK3β and Tau [7]; [8]): upregulates the phosphorylation of GSK3β
- expression of SKN-1 isoforms (B and C) by Western blot (SKN-1; 100 μM, 72 hours): showed increases
- signal intensity and localization of SKN-1::GFP in intestinal nuclei and ASI neurons (SKN-1; in vivo): significantly increased
